Experimental data from PubChem BioAssay AID2060354 (Molecular Pharmacology Branch, DTP, NCI, 2025).
Where “and” joins values, the source holds several entries; their conditions need not be identical. Equal values may be shown once.

Test system: 519858-162-T-J1-PDC spheroid growth inhibition
Assay: Anticancer human tumor 519858-162-T-J1-PDC patient-derived colon adenocarcinoma cell line growth inhibition [TAK]
Conditions: spheroids with HUVEC and MSC; for viability, T/C: stronger effect = lower value
Outline: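 Tumor cells were grown as spheroids with HUVEC and hMSC (60:25:15) and treated with targeted agents combined with TAK-243 or ipatasertib. Drugs were tested in half-log steps down from near the clinical Cmax, or from 10 microM where Cmax was unknown.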

[1] = curve of first compound, second compound 0.3 µM
[2] = curve of first compound, second compound 0.949 µM
[3] = curve of first compound, second compound 3 µM
[4] = curve of first compound, second compound 9.49 µM
[5] = curve of first compound, second compound 30 µM
[6] = second compound 0.3 µM, first compound 0.000316 µM
[7] = second compound 0.3 µM, first compound 0.001 µM
[8] = second compound 0.3 µM, first compound 0.00316 µM
[9] = second compound 0.3 µM, first compound 0.01 µM
[10] = second compound 0.949 µM, first compound 0.000316 µM
[11] = second compound 0.949 µM, first compound 0.001 µM
[12] = second compound 0.949 µM, first compound 0.00316 µM
[13] = second compound 0.949 µM, first compound 0.01 µM
[14] = second compound 3 µM, first compound 0.000316 µM
[15] = second compound 3 µM, first compound 0.001 µM
[16] = second compound 3 µM, first compound 0.00316 µM
[17] = second compound 3 µM, first compound 0.01 µM
[18] = second compound 9.49 µM, first compound 0.000316 µM
[19] = second compound 9.49 µM, first compound 0.001 µM
[20] = second compound 9.49 µM, first compound 0.00316 µM
[21] = second compound 9.49 µM, first compound 0.01 µM
[22] = second compound 30 µM, first compound 0.000316 µM
[23] = second compound 30 µM, first compound 0.001 µM
[24] = second compound 30 µM, first compound 0.00316 µM
[25] = second compound 30 µM, first compound 0.01 µM
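Note: spheroids exposed to drugs for 7 days.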

What does the source list for `CC(C)(C)c1nc(-c2cccc(NS(=O)(=O)c3c(F)cccc3F)c2F)c(-c2ccnc(N)n2)s1`?
viability, T/C (compound 0.0316 µM): 116% and 110%; viability, T/C (compound 0.1 µM): 134% and 144%; viability, T/C (compound 0.316 µM): 131% and 137%; viability, T/C (compound 1 µM): 132% and 150%; viability, T/C (compound 3.16 µM): 99% and 94.1%; viability, T/C (compound 10 µM): 53.2% and 71.4%; IC50 (curve of compound): > 10 µM

Which viability, T/C (compound 0.00949 µM) does the source give for `Cn1cnc2c(F)c(Nc3ccc(Br)cc3Cl)c(C(=O)NOCCO)cc21` here?
Its viability, T/C is 89.7% and 85.4%.

And the viability, T/C (compound 0.03 µM)?
The viability, T/C was 76.2% and 71.8%.

What about the viability, T/C (compound 0.0949 µM) of the same compound?
The viability, T/C was 45.6% and 51.8%.

What about the viability, T/C (compound 0.3 µM) of the same compound?
Its viability, T/C is 32.3% and 33.5%.

What about the viability, T/C (compound 0.949 µM) of the same compound?
The viability, T/C was 20.3% and 21.6%.

And the viability, T/C (compound 3 µM)?
The viability, T/C was 17.2% and 18.4%.

What about the IC50 (curve of compound) of the same compound?
The IC50 was 0.0896 µM and 0.106 µM.

For `CCCS(=O)(=O)Nc1ccc(F)c(C(=O)c2c[nH]c3ncc(-c4ccc(Cl)cc4)cc23)c1F`, which viability, T/C (compound 0.316 µM) is on record?
The viability, T/C was 99.3% and 108%.

What about the viability, T/C (compound 1 µM) of the same compound?
Its viability, T/C is 91.4% and 91.7%.

And the viability, T/C (compound 3.16 µM)?
The viability, T/C was 105% and 126%.

And the viability, T/C (compound 10 µM)?
Its viability, T/C is 91.9% and 93%.

And the viability, T/C (compound 31.6 µM)?
Its viability, T/C is 114% and 129%.

And the viability, T/C (compound 100 µM)?
The viability, T/C was 132% and 140%.

What about the IC50 (curve of compound) of the same compound?
Its IC50 is over 100 µM.

What does the source list for `CC(C)n1nc(-c2ccc3oc(N)nc3c2)c2c(N)ncnc21` + CC(C)NCC(C(=O)N1CCN(c2ncnc3c2C(C)CC3O)CC1)c1ccc(Cl)cc1?
IC50 [1]: > 0.1 µM; IC50 [2]: > 0.1 µM; IC50 [3]: > 0.1 µM; IC50 [4]: > 0.1 µM; IC50 [5]: > 0.1 µM; viability, T/C [6]: 110%; viability, T/C [7]: 78.7%; viability, T/C [8]: 89.7%; viability, T/C [9]: 89.7%; viability, T/C (second compound 0.3 µM, first compound 0.0316 µM): 93.8%; viability, T/C (second compound 0.3 µM, first compound 0.1 µM): 68.1%; viability, T/C [10]: 85.7%; viability, T/C [11]: 88.2%; viability, T/C [12]: 107%; viability, T/C [13]: 83.8%; viability, T/C (second compound 0.949 µM, first compound 0.0316 µM): 90%; viability, T/C (second compound 0.949 µM, first compound 0.1 µM): 71.1%; viability, T/C [14]: 80.5%; viability, T/C [15]: 102%; viability, T/C [16]: 89.3%; viability, T/C [17]: 83.9%; viability, T/C (second compound 3 µM, first compound 0.0316 µM): 71.4%; viability, T/C (second compound 3 µM, first compound 0.1 µM): 72.2%; viability, T/C [18]: 81.9%; viability, T/C [19]: 90.1%; viability, T/C [20]: 84.1%; viability, T/C [21]: 93.7%; viability, T/C (second compound 9.49 µM, first compound 0.0316 µM): 74.1%; viability, T/C (second compound 9.49 µM, first compound 0.1 µM): 73.9%; viability, T/C [22]: 107%; viability, T/C [23]: 80.2%; viability, T/C [24]: 105%; viability, T/C [25]: 79%; viability, T/C (second compound 30 µM, first compound 0.0316 µM): 67.1%; viability, T/C (second compound 30 µM, first compound 0.1 µM): 72.2%

What does the source list for `CC(C)CC(NC(=O)CNC(=O)c1cc(Cl)ccc1Cl)B1OC(=O)CC(CC(=O)O)(C(=O)O)O1` (configuration not stated)?
viability, T/C (compound 0.000316 µM): 86.2% and 83.8%; viability, T/C (compound 0.00316 µM): 106% and 95.6%; viability, T/C (compound 0.01 µM): 92.6% and 72.9%; viability, T/C (compound 0.0316 µM): 74.9% and 77%; viability, T/C (compound 0.1 µM): 74.5% and 84.2%; IC50 (curve of compound): > 0.1 µM

Which results are given for `CC(C)CC(NC(=O)C(Cc1ccccc1)NC(=O)c1cnccn1)B(O)O` (configuration not stated) + CC(C)NCC(C(=O)N1CCN(c2ncnc3c2C(C)CC3O)CC1)c1ccc(Cl)cc1?
IC50 [1]: > 0.01 µM; IC50 [2]: > 0.01 µM; IC50 [3]: > 0.01 µM; IC50 [4]: > 0.01 µM; IC50 [5]: > 0.01 µM; viability, T/C (second compound 0.3 µM, first compound 31.6 pM): 84.6%; viability, T/C (second compound 0.3 µM, first compound 0.0001 µM): 80.4%; viability, T/C [6]: 75.7%; viability, T/C [7]: 92.6%; viability, T/C [8]: 83.2%; viability, T/C [9]: 63.8%; viability, T/C (second compound 0.949 µM, first compound 31.6 pM): 83.7%; viability, T/C (second compound 0.949 µM, first compound 0.0001 µM): 97.6%; viability, T/C [10]: 86.4%; viability, T/C [11]: 88.9%; viability, T/C [12]: 95.6%; viability, T/C [13]: 69.7%; viability, T/C (second compound 3 µM, first compound 31.6 pM): 84.4%; viability, T/C (second compound 3 µM, first compound 0.0001 µM): 84.7%; viability, T/C [14]: 67.9%; viability, T/C [15]: 84.4%; viability, T/C [16]: 78.7%; viability, T/C [17]: 77.1%; viability, T/C (second compound 9.49 µM, first compound 31.6 pM): 100%; viability, T/C (second compound 9.49 µM, first compound 0.0001 µM): 88.2%; viability, T/C [18]: 110%; viability, T/C [19]: 83.2%; viability, T/C [20]: 66.2%; viability, T/C [21]: 82.8%; viability, T/C (second compound 30 µM, first compound 31.6 pM): 85.2%; viability, T/C (second compound 30 µM, first compound 0.0001 µM): 97.1%; viability, T/C [22]: 96.7%; viability, T/C [23]: 88.4%; viability, T/C [24]: 85.2%; viability, T/C [25]: 78%
